Data set [1] has as its system CL320 CHO cells. In words: Growth (VCD), viability and antibody titer of the culture with supplemented feed. It counts as cell-based. As to conditions: addition of 10 mg/L (so in the source). Here is the method:
The carboxyl-terminal lysine residues of a model antibody produced by CHO cells were analyzed. […] […] On Day 5, 10 g/L cottonseed hydrolysate was added. VCD and viability were assessed, and cells were harvested on Day 10. The antibodies produced under the various conditions were evaluated for titer and C-terminal lysine by ion exchange chromatography.

The subject of data set [2] is K1 and K2 lysine residues. In words: Additional culture data: levels of K1/K2 lysine residues of the antibody produced. It counts as cell-based. Conditions: included in culture media, compared to controls.

Consider `N=C(N)NCCC[C@H](N)C(=O)O` [L-Arg, L-arginine], for which, in data set [1], the effect on growth result is given as “did not affect”, the effect on titers result is given as “did not affect” and the effect on viability result is “did not affect”.
For the compound `NCCCC[C@H](N)C(=O)O` [L-Lys, L-lysine], in data set [1], the effect on growth entry is “did not affect”, the effect on titers entry is “did not affect” and the effect on viability result is given as “did not affect”.
`Cl.N` [NH4Cl, ammonium chloride]: the “levels of K1 and K2 lysine residues” value in data set [2] is listed as “increased”.

For the origin of these results see patent US12139735B2, “Cell culture process” (Momenta Pharmaceuticals, Inc., priority 2011, dated 2024).
